These are literature values, as cited in US6776977B2, “Polypodal chelants for metallopharmaceuticals” (Bristol-Myers Squibb Pharma Company, priority 2001, dated 2004).

For this data set the following is noted: decomposition under acidic conditions.

For the compound `O=C([O-])CN(CCN(CC(=O)[O-])CC(=O)[O-])CCN(CC(=O)[O-])CC(=O)[O-].[Gd+3]` [Gd(DTPA)^2−], the Kobs is 0.0012 s⁻¹.
